According to paper PMC9186373, “Design, synthesis, and biological evaluation of novel carbazole derivatives as potent DNMT1 inhibitors with reasonable PK properties” (Journal of Enzyme Inhibition and Medicinal Chemistry, 2022):
Where two headings read alike, the source gives them in different places.

What was measured:
[1] = system: G9a (histone H3 lysine 9 methyltransferase); experiment: Methylation inhibition assay (AlphaLisa), G9a; type: biochemical; conditions: 50 µM; for inhibitory activity against G9a: Figure 3; for Relative selectivity index of DNMT1 vs G9a: 1 - selected enzyme inhibition/DNMT1 inhibition
Protocol: (§1) All the compounds were first screened using an ELISA EpiQuik DNA methyltransferase (DNMT) activity/inhibitor assay kit (Epigentek). To measure the effects of the compounds on human DNMT1 activity, 200 nM purified DNMT1 was incubated with 50 µM and 100 µM of the different compounds and S-adenosylmethionine in the DNMT assay buffer in the assay plate at 37 °C for 2 h[36]. Next, every sample was incubated with the capture and detection antibody, followed by incubation with developer solution for 10 min at room temperature. The absorbance was measured at 450 nm using a POLARstar Omega microplate reader (BMG). S-Adenosylhomocysteine (AdoHcy) was used as a positive control. Methylation inhibition assays for EZH2, LSD, and G9a were performed in modified Tris, pH 9.0, buffer using AlphaLisa technology. An amount of 10 µL of the reaction system contained a corresponding concentration of SAM (Sigma) (EZH2 50 µM, LSD 50 µM, and G9a 50 µM), which was the Km value in each enzymatic reaction, plus 100 nM biotinylated peptide H3 (1–21) (synthesis by GLChina) and the relevant enzyme concentration (0.03 nM EZH2, 0.03 nM LSD, and 0.03 nM G9a). The proteins were preincubated with various compound concentrations for 15 min at room temperature before the substrate and SAM were added. After 60 min of incubation at room temperature, acceptor and donor AlphaLisa beads were added according to the manufacturer’s recommendations. The signals were read in Alpha mode with an EnSpire multimode plate reader (PerkinElmer). IC50 values were derived by fitting the data for the inhibition percentage to a dose-response curve by non-linear regression in GraphPad Prism 5.0[20].
(§2) In addition to DNMT1, there are many other methyltransferases that can bind with S-adenosyl-L-methionine (SAM) to facilitate transmethylation reactions[24]^,[25]. To investigate the selectivity of these potent compounds for DNMT1, we then evaluated the inhibitory activities against DNMT1 and other important methyltransferases at the concentration of 50 µM, including DNMT3A/3L, DNMT3B/3L, and other SAM-dependent enzymes[1]^,[2]^,[26], such as EZH2[27], LSD1[28], G9a (histone H3 lysine 9 methyltransferase)[29].
(§3) 493 Relative selectivity index
(§4) 494 Relative selectivity index of DNMT1 is calculated by formula: DNMT1-selectivity
(§5) 495 index =1 - selected enzyme inhibition/DNMT1 inhibition. The closer
(§6) 496 that this value is to 1 or even more than 1, the better DNMT1-selectivity the of the
(§7) 498 Table S1. Relative selectivity index of DNMT1
Cpd. […]

[2] = system: HCT116 (human colon cancer cells); experiment: MTT assay, HCT116; type: cell-based
Protocol: (§8) The human lung cancer cells (A549) and human colon cancer cells (HCT116) were cultured in an RPMI-1640 medium containing 10% FBS, 100 U/mL streptomycin, and 100 U/mL penicillin at 37 °C in a humidified atmosphere with 5% CO2. All compounds were dissolved in DMSO and stock solutions were stored at −20 °C. Reagents were freshly diluted to the marked concentrations with a culture medium before use. DMSO concentration in experimental conditions never exceeded 0.1% (v/v). All cell lines were provided by the cell laboratory, School of pharmaceutical sciences, Guangzhou Medical University.
(§9) Cell viability was detected using an MTT assay kit. Cells were seeded into 96-well plates at a density of ∼1.0 × 10^4/well. 24 h later, sextuplicate wells were treated with media and new compounds at a fixed concentration (50 µM). After 24, 48, and 72 h, the drug-containing medium was replaced by a 100 µL fresh medium with 5 mg/mL MTT solution. After 4 h of incubation, the medium with MTT was removed, and 100 µL of DMSO was added to each well. The plates were gently agitated until the purple formazan crystals were dissolved, and the OD490 was determined using a […] (Olympus BX53, Japan). The data were calculated and plotted as the percent viability compared to the control.

DNMT3B/3L = experiment: Methyltransferase enzymatic selectivity profiling, DNMT3B/3L; type: biochemical; conditions: 50 µM; for inhibitory activity against DNMT3B/3L: Figure 3; for Relative selectivity index of DNMT1 vs DNMT 3B/3L: 1 - selected enzyme inhibition/DNMT1 inhibition
Protocol: as §2
(§10) Here, the selectivity of non-nucleoside DNMT1 inhibitors is somewhat predictable because other methyltransferases mentioned above catalyse different substrates and share very low homology with DNMT1, even in their catalytic domain[30–32]. Subsequently, the screened compounds were evaluated in a dose-dependent assay against HCT116 (human colon cancer cell line) and A549 (human lung carcinoma cell line).
as §3, §4, §5, §6, §7
Cpd. […]

DNMT1 = DNMT1 (Homo sapiens, UniProt P26358); experiment: H3-labelled radioactive methylation assay; type: biochemical; conditions: H3-labeled radioactive methylation assay; 40 nM DNMT1
Protocol: The DNMT1 radioactive methylation inhibition assays were performed in 30 µL reactions containing 0.1 µM adenosyl-L-methionine S-[methyl-^3H] (^3H-SAM, ^15 Ci/mmol, PerkinElmer), 0.25 µg/mL poly (dI-dC)·poly (dI-dC) (Sigma), 40 nM DNMT1 in 50 mM Tris-HCl, pH 8.0, 1 mM DTT, 5% glycerol, and 100 µg/mL BSA. The proteins were preincubated with a range of compound concentrations for 15 min at room temperature before adding the substrate and [^3H] SAM. After 60 min of incubation at 37 °C, the reaction systems were transferred to a MultiScreen HTS filter plate (Millipore), and the plate was washed 3 times with doubly distilled H2O via a vacuum. The radioactivity was determined by liquid scintillation counting (MicroBeta, PerkinElmer). IC50 values were derived by fitting the data for the inhibition percentage to a dose-response curve by non-linear regression in GraphPad Prism 5.0.
To quantitatively analyse DNMT1 inhibitory effect, the H^3-labelled radioactive methylation assay was conducted to measure the methyltransferase activity of DNMT1 at a range of concentrations for these compounds.

EZH2 = experiment: Methylation inhibition assay (AlphaLisa), EZH2; type: biochemical; conditions: 50 µM; for inhibitory activity against EZH2: Figure 3; for Relative selectivity index of DNMT1 vs EZH2: 1 - selected enzyme inhibition/DNMT1 inhibition
Protocol: as §1, §2, §3, §4, §5, §6, §7
Cpd. […]

LSD1 = experiment: Methylation inhibition assay (AlphaLisa), LSD1; type: biochemical; conditions: 1 - selected enzyme inhibition/DNMT1 inhibition; 50 µM
Protocol: as §1, §2, §3, §4, §5, §6, §7
Cpd. […]

[3] = system: A549 (human lung cancer cells); experiment: MTT assay, A549; type: cell-based
Protocol: as §8, §9

DNMT3A/3L = experiment: Methyltransferase enzymatic selectivity profiling, DNMT3A/3L; type: biochemical; conditions: 1 - selected enzyme inhibition/DNMT1 inhibition; 50 µM
Protocol: as §2, §10, §3, §4, §5, §6, §7
Cpd. […]

human DNMT1 = experiment: ELISA EpiQuik DNA methyltransferase (DNMT) activity/inhibitor assay; type: biochemical; conditions: 200 nM purified DNMT1, EpiQuik kit; for Inh% at 50 μM: 50 μM compound; for Inh% at 100 μM: 100 μM compound
Protocol: as §1
DNMT1 inhibition test was performed on 30 candidates to verify their biochemical activities. The EpiQuik DNA methyl-transferase (DNMT) activity/inhibitor assay kit (Epigentek) was used to identify the activity of synthetic compounds.

[4] = HCT-116, 24 h, read-out: Inh % at 50 μM, HCT116, 24 h
[5] = HCT-116, 48 h, read-out: Inh % at 50 μM, HCT116, 48 h
[6] = HCT-116, 72 h, read-out: Inh % at 50 μM, HCT116, 72 h
[7] = 24 h, read-out: Inh % at 50 μM, A549, 24 h
[8] = 48 h, read-out: Inh % at 50 μM, A549, 48 h
[9] = 72 h, read-out: Inh % at 50 μM, A549, 72 h

Chain of DNMT1 (P26358 whole entry): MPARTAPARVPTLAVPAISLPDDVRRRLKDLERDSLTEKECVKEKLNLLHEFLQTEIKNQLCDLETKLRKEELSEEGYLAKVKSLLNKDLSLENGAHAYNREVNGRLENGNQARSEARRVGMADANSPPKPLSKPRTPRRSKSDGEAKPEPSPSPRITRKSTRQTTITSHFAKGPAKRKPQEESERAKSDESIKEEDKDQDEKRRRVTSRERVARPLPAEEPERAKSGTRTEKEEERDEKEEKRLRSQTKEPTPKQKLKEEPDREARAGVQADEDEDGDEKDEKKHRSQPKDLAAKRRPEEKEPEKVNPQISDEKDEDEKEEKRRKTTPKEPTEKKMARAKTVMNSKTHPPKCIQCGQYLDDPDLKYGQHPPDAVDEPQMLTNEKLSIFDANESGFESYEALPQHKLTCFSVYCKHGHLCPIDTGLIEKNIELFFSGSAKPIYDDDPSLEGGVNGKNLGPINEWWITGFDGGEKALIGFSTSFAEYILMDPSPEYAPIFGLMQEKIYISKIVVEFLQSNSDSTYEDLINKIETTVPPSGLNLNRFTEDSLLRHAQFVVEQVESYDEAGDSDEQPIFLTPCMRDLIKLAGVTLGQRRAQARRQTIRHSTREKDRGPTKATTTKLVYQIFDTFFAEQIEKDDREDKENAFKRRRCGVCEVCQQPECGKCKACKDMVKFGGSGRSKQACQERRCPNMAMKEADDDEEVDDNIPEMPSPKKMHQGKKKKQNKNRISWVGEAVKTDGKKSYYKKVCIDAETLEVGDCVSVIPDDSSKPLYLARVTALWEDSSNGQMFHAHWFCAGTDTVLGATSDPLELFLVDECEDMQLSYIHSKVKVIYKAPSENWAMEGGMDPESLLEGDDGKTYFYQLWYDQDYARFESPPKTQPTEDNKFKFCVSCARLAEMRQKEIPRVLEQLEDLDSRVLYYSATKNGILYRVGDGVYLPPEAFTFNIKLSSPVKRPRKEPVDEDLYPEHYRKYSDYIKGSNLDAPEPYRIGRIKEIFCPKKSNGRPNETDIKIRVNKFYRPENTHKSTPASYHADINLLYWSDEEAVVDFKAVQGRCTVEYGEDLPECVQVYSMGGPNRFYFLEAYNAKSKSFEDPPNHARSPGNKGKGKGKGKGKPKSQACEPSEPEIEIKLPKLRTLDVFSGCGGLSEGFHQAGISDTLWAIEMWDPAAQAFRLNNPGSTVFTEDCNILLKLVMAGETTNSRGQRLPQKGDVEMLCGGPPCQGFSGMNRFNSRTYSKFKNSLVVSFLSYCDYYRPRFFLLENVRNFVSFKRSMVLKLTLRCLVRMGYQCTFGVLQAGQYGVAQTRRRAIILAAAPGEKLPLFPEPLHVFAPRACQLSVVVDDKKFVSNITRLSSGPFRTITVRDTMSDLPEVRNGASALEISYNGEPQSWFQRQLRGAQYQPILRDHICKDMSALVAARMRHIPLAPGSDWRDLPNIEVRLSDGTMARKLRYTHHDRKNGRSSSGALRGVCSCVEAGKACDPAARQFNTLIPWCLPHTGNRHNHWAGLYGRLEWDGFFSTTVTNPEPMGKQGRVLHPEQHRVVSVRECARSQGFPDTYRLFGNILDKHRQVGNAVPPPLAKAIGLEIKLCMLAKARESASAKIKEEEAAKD

Compound | inhibitory activity against G9a [1] | Relative selectivity index of DNMT1 vs G9a [1] | inhibition at 50 µM [2, 4] [%] | inhibition at 50 µM [2, 5] [%] | inhibition at 50 µM [2, 6] [%] | inhibitory activity against DNMT3B/3L (DNMT3B/3L) | Relative selectivity index of DNMT1 vs DNMT 3B/3L (DNMT3B/3L) | IC50 (DNMT1) [µM] | inhibitory activity against EZH2 (EZH2) | Relative selectivity index of DNMT1 vs EZH2 (EZH2) | melting point [°C] | Relative selectivity index of DNMT1 vs LSD1 (LSD1) | inhibition at 50 µM [3, 7] [%] | inhibition at 50 µM [3, 8] [%] | inhibition at 50 µM [3, 9] [%] | Relative selectivity index of DNMT1 vs DNMT 3A/3L (DNMT3A/3L) | Inh% at 50 μM (human DNMT1) [%] | Inh% at 100 μM (human DNMT1) [%]
OC(CNCCc1c[nH]c2ccccc12)Cn1c2ccccc2c2cc(F)ccc21 (stereo not shown) [WK-1, 1-((2-(1H-indol-3-yl)ethyl)amino)-3-(3-fluoro-9H-carbazol-9-yl)propan-2-ol] | hardly any inhibitory activities | 0.84 | 90.9 | 88 | 94.9 | hardly any inhibitory activities | 1.15 | 28 | hardly any inhibitory activities | 0.93 | 137 to 139 | 0.18 | 88.2 | 78.6 | 87.6 | 0.49 | 82 | 100
OC(CNCCc1c[nH]c2ccccc12)Cn1c2ccc(F)cc2c2cc(F)ccc21 (stereo not shown) [WK-12, 1-((2-(1H-indol-3-yl)ethyl)amino)-3-(3,6-difluoro-9H-carbazol-9-yl)propan-2-ol] | hardly any inhibitory activities | 0.93 | 77.7 | 88.8 | 96.7 | hardly any inhibitory activities | 1.09 | 17 | hardly any inhibitory activities | 0.91 | 130 to 132 | 0.23 | 59.9 | 80.1 | 84.7 | 0.67 | 99 | 94
Oc1ccc(CCNCC(O)Cn2c3ccc(F)cc3c3cc(F)ccc32)cc1 (stereo not shown) [WK-13, 4-(2-((3-(3,6-Difluoro-9H-carbazol-9-yl)-2-hydroxypropyl)amino)ethyl) phenol] | hardly any inhibitory activities | 0.91 |  | 86.3 | 93.2 | hardly any inhibitory activities | 1.28 | 19 | hardly any inhibitory activities | 1.01 | 143 to 145 | 0.33 |  | 69.2 | 84.1 | 0.68 | 82 | 90
CC(CO)NCC(O)Cn1c2ccc(F)cc2c2cc(F)ccc21 (stereo not shown) [WK-19, 2-((3-(3,6-Difluoro-9H-carbazol-9-yl)-2-hydroxypropyl)amino)propan-1-ol] |  | 0.91 | 5.6 | 59.4 | 88.3 |  | 1.29 | 9.2 |  | 1.01 | 136 to 138 | 0.29 | 7.9 | 68.4 | 79.9 | 0.67 | 78 | 93
